Experimental data reported in patent US20260137662A1, “CD11B AGONISTS FOR TREATMENT OF AUTOIMMUNE DISEASE” (Rush University Medical Center, priority 2022, published 2026).

Experiments:
[1] = system: RAW 264.7 murine macrophage cell line; assay: suPAR and TNFa secretion from RAW 264.7 cells treated with LN patient sera (ELISA); assay type: cell-based; conditions: co-treatment LN sera (0.5%) and LA1 (20 uM), 4 hours, vs LN sera alone
Procedure: FIG. 1A illustrates levels of biomarker suPAR secretion from RAW 264.7 cells after 4 hours of treatment with cell culture medium (UT), LA1 (20 uM), LN patient sera (0.5%) in culture medium ([…]), or co-treatment with LN sera (0.5%) and LA1 (20 uM). […] FIG. 1B illustrates levels of biomarker TNFa secretion from RAW 264.7 cells after 4 hours of treatment with cell culture medium (UT), LA1 (20 uM), LN patient sera (0.5%) in culture medium ([…]), or co-treatment with LN sera (0.5%) and LA1 (20 uM). […] Myeloid cells from RAW 264.7 murine macrophage cell line were used to measure the concentration of pro-inflammatory biomarkers, soluble uPAR (suPAR) and TNFa, in the presence of lupus nephritis (LN) sera and LA1. The levels of pro-inflammatory biomarkers were measured in the supernatant of untreated cells, cells treated with LA1, cells treated with sera from patients with lupus nephritis (LN), and cells co-treated with LN sera and LA1. The concentrations of various pro-inflammatory biomarkers in cell supernatant were measured 4 hours after treatment using ELISA.

TLR signaling pathways = assay: Relative gene expression in RAW cells treated with Poly(I:C); assay type: cell-based, murine; conditions: Poly(I:C) (0.1 ug/mL) and LA1 (20 uM) co-treatment, 4 hours
Procedure: FIG. 2C illustrates relative gene expression of biomarker uPAR in RAW cells after 4 hours of treatment with Poly(I:C) (0.1 ug/mL), LA1 (20 uM), and Poly(I:C) […] LA1 co-treatment.
FIG. 2D illustrates relative gene expression biomarker IL-1b in RAW cells after 4 hours of treatment with Poly(I:C) (0.1 ug/mL), LA1 (20 uM), or Poly(I:C) and LA1 co-treatment.
The effect of LA1 on TLR-stimulation dependent pro-inflammatory pathways was studied by stimulating myeloid cells with different TLR-stimulants (lipopolysaccharide (LPS), Pam2CSK 4, imiquimod (IMQ)) or with phorbol 12-myristate 13-acetate (PMA) and co-treating with LA1. The levels of suPAR (pg/mL) and TNFa (pg/mL) in cell supernatant were measured 4 hours after treatment using ELISA. […] Relative gene expression was also assessed in myeloid cells treated with Poly(I:C), a known toll-like receptor (TLR) agonist, and co-treated with LA1.

[2] = system: BMDMs from C57BL/6 wild type mice (WT); assay: Biomarker secretion from IMQ-treated bone marrow derived macrophages of wild type mice; assay type: cell-based; conditions: WT cells, IMQ (20 ug/mL) and LA1 (20 uM) co-treatment, 4 hours
Procedure: (§1) FIG. 7A illustrates levels of biomarker IL-6 secretion in bone marrow derived macrophages (BMDMs) from C57BL/6 wild type (WT) mice, mice with global deletion of CD11b (KO), or C57BL/6 mice expressing CD11b with a point mutation (KI), the macrophages treated for 4 hours with vehicle DMSO (UT), LA1 (20 uM), IMQ (20 ug/mL), or IMQ and LA1 co-treatment. Bars show mean with SD (N=3) (*P<0.05, **P<0.01, ***P<0.001, ****P<0.0001).
(§2) FIG. 7B illustrates levels of biomarker IL-1b secretion in bone marrow derived macrophages (BMDMs) from C57BL/6 wild type (WT) mice, mice with global deletion of CD11b (KO), or C57BL/6 mice expressing CD11b with a point mutation (KI), the macrophages treated for 4 hours with vehicle DMSO (UT), LA1 (20 uM), IMQ (20 ug/mL), or IMQ and LA1 co-treatment. Bars show mean with SD (N=3) (*P<0.05, **P<0.01, ***P<0.001, ****P<0.0001).
(§3) FIG. 7C illustrates levels of biomarker suPAR secretion in bone marrow derived macrophages (BMDMs) from C57BL/6 wild type (WT) mice, mice with global deletion of CD11b (KO), or C57BL/6 mice expressing CD11b with a point mutation (KI), the macrophages treated for 4 hours with vehicle DMSO (UT), LA1 (20 uM), IMQ (20 ug/mL), or IMQ and LA1 co-treatment. Bars show mean with SD (N=3) (*P<0.05, **P<0.01, ***P<0.001, ****P<0.0001).
(§4) FIG. 7D illustrates levels of biomarker IFNb secretion in bone marrow derived macrophages (BMDMs) from C57BL/6 wild type (WT) mice, mice with global deletion of CD11b (KO), or C57BL/6 mice expressing CD11b with a point mutation (KI), the macrophages treated for 4 hours with vehicle DMSO (UT), LA1 (20 uM), IMQ (20 ug/mL), or IMQ and LA1 co-treatment. Bars show mean with SD (N=3) (*P<0.05, **P<0.01, ***P<0.001, ****P<0.0001).
(§5) Bone marrow derived macrophages (BMDMs) from C57BL/6 wild type mice (WT), mice with global deletion of CD11b (KO), and C57BL/6 mice expressing CD11b with a point mutation (KI), as described previously (Martinez et al., 2020) were used to evaluate the effect of pharmacologic activation of CD11b by LA1 or genetic activation of CD11b on TLR-pathway dependent biomarkers. BMDMs from WT, KO, and KI mice were left untreated, treated with LA1, treated with IMQ, or co-treated with LA1 and IMQ and levels of biomarkers IL-1b, suPAR, IL-6 and IFN-b were measured 4 hours after treatment.

[3] = system: BMDMs from C57BL/6 mice expressing CD11b with a point mutation (KI); assay: Biomarker secretion from IMQ-treated bone marrow derived macrophages of CD11b KI mice; assay type: cell-based; conditions: KI cells (genetically activated CD11b), IMQ (20 ug/mL) and LA1 (20 uM) co-treatment, 4 hours
Procedure: as §1, §2, §3, §4, §5

## O=C(O)c1ccc(-c2ccc(/C=C3\SC(=S)N(Cc4ccccc4)C3=O)o2)cc1 [LA1, (Z)-4-(5-((3-benzyl-4-oxo-2-thioxothiazolidin-5-ylidene)methyl)furan-2-yl)benzoic acid]
[1]
  level of TNFa in cell supernatant: significantly reduced
  level of soluble uPAR (suPAR) in cell supernatant: significantly reduced
TLR signaling pathways
  relative gene expression of biomarker IL-1b: significantly reduced
  relative gene expression of biomarker uPAR: significantly reduced
[2]
  level of IFN-b in cell supernatant: significantly suppressed
  level of IL-1b in cell supernatant: significantly suppressed
  level of IL-6 in cell supernatant: significantly suppressed
  level of suPAR in cell supernatant: significantly suppressed
[3]
  level of IFN-b in cell supernatant: did not change basal levels
  level of IL-1b in cell supernatant: did not change basal levels
  level of IL-6 in cell supernatant: did not change basal levels
  level of suPAR in cell supernatant: did not change basal levels
